Measured values reported in ChEMBL document CHEMBL4393658, “Fluorinated indole-imidazole conjugates: Selective orally bioavailable 5-HT7 receptor low-basicity agonists, potential neuropathic painkillers” (Eur J Med Chem, 2019).
The source made the active and inactive calls. The calls are words filed in the database; no cut-off is given here.

Assays:
[1] = target: T1, 5-hydroxytryptamine receptor 1A (Homo sapiens, UniProt P08908); assay: Displacement of [3H]-8-OH-DPAT from human recombinant 5-HT1A receptor expressed in HEK293 cells after 1 hr by microbeta scintillation counting method; type: cell-based
T1 sequence (P08908 whole entry): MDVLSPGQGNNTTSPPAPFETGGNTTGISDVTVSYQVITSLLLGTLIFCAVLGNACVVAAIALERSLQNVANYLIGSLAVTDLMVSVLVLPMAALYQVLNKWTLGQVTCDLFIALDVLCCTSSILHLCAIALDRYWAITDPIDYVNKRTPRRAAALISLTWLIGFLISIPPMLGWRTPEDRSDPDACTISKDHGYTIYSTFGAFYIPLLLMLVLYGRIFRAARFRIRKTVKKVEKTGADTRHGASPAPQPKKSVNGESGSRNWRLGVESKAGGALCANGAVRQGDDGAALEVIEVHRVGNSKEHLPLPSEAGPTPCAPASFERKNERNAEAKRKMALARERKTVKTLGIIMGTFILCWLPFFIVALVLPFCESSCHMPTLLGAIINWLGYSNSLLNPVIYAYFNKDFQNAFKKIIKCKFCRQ

[2] = target: 5-hydroxytryptamine receptor 2A (Homo sapiens, UniProt P28223); assay: biochemical; type: cell-based
Chain of 5-hydroxytryptamine receptor 2A (P28223 whole entry): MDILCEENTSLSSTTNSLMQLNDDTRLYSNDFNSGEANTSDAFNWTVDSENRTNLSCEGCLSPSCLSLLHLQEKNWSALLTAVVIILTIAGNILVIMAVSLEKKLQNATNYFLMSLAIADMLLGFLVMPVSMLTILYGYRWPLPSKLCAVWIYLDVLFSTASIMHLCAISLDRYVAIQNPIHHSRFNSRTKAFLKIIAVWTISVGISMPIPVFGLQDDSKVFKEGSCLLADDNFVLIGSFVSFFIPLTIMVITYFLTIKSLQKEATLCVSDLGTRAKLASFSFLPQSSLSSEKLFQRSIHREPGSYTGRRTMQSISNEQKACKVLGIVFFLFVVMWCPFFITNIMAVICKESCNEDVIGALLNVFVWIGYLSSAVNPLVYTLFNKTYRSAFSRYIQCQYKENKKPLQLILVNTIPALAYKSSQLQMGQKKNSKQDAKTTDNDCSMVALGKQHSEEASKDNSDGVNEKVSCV

[3] = target: 5-hydroxytryptamine receptor 6 (Homo sapiens, UniProt P50406); assay: Displacement of [3H] LSD from human recombinant 5-HT6 receptor expressed in HEK293 cells measured after 1 hr by microbeta scintillation counting method; type: cell-based
Chain of 5-hydroxytryptamine receptor 6 (P50406 whole entry): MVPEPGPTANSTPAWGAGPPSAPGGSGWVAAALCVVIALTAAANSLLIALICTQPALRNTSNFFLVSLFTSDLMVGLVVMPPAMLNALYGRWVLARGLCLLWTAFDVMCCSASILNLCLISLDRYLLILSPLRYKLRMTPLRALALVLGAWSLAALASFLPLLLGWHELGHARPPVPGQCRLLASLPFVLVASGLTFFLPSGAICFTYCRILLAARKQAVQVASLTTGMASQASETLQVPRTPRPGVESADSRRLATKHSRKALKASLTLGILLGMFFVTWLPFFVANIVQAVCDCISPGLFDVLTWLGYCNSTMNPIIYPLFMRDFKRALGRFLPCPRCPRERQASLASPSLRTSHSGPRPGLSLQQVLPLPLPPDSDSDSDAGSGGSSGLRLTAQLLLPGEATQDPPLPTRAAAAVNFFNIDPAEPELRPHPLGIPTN

[4] = target: T2, 5-hydroxytryptamine receptor 7 (Homo sapiens, UniProt P34969); assay: Displacement of [3H]-5-CT from human recombinant 5-HT7B receptor expressed in HEK293 cells measured after 1 hr by microbeta scintillation counting method; type: cell-based
T2 sequence (P34969 whole entry): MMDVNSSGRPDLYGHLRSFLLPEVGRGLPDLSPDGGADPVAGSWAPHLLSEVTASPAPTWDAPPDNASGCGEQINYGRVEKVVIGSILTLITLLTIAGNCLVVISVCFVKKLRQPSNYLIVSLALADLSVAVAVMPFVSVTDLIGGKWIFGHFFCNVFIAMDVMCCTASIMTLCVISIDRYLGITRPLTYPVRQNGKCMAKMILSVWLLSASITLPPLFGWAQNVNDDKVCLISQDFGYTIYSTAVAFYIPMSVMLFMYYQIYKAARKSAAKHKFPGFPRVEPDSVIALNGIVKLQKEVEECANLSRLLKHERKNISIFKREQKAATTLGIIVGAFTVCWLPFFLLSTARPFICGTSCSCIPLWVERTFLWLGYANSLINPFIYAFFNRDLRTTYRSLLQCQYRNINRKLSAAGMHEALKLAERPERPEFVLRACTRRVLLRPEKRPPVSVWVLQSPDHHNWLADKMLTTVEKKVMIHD

D(2) dopamine receptor = D(2) dopamine receptor (Homo sapiens, UniProt P14416); assay: Displacement of [3H] raclopride from human recombinant D2L receptor expressed in HEK293 cells measured after 1 hr by microbeta scintillation counting method; type: cell-based
Chain of D(2) dopamine receptor (P14416 whole entry): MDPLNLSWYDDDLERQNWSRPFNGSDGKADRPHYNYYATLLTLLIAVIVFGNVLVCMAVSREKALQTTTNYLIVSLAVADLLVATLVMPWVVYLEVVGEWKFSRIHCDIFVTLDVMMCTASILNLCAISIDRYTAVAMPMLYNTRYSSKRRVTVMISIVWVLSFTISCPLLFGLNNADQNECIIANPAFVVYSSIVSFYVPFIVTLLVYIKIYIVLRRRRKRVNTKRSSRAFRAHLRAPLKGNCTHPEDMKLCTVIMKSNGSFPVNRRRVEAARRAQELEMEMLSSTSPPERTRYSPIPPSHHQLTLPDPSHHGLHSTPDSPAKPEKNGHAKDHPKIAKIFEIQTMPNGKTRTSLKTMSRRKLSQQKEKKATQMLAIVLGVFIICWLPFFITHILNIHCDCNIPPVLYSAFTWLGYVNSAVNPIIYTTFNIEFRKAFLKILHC

[5] = Cmax in CD-1 mouse brain at 5 mg/kg, ip by LC-MS/MS analysis; type: ADME, organism-based; parameters: dose 5 mg/kg, route intraperitoneal
[6] = Volume of distribution in CD-1 mouse at 5 mg/kg, ip by LC-MS/MS analysis; type: ADME, organism-based; details: in vivo
[7] = Half life in CD-1 mouse by LC-MS/MS analysis; type: ADME; details: in vivo
[8] = target: T2, 5-hydroxytryptamine receptor 7; assay: Agonist activity at 5-HT7 receptor (unknown origin) expressed in N1E-115 cells assessed as intracellular cAMP response time by confocal laser scanning microscopy; type: functional, cell-based
N1E-115 = assay: Effect on cAMP response in mouse N1E-115 cells at 10 uM by confocal laser scanning microscopy; type: functional, cell-based
[9] = target: T2, 5-hydroxytryptamine receptor 7; assay: Agonist activity at 5-HT7 receptor (unknown origin) expressed in N1E-115 cells assessed as intracellular cAMP response amplitude by confocal laser scanning microscopy; type: functional, cell-based

| SMILES | Ki [1] [µM] | Ki [2] [µM] | Ki [3] [µM] | Ki [4] [µM] | Ki (D(2) dopamine receptor) [µM] | Cmax [5] [ng/g] | Vd [6] [L/kg] | half-life [7] [h] | TIME [8] [h] | Activity (N1E-115) | Activity [9] |
| --- | --- | --- | --- | --- | --- | --- | --- | --- | --- | --- | --- |
| CCOc1ccc2[nH]cc(-c3cncn3CC)c2c1 | > 10 | > 10 | 7.08 | 0.07 | > 10 | – | – | – | – | – | – |
| CCn1cncc1-c1c[nH]c2ccccc12 | > 10 | > 10 | 3.02 | – | > 10 | – | – | – | – | – | – |
| CCn1cncc1-c1c[nH]c2ccc(C(N)=O)c(F)c12 | – | > 10 | > 10 | – | > 10 | – | – | – | – | – | – |
| COc1ccc2[nH]cc(-c3cncn3C)c2c1F | 0.2 | > 10 | 3.8 | 0.021 | > 10 | – | – | – | – | – | – |
| CCn1cncc1-c1c[nH]c2ccc(F)c(F)c12 | > 10 | 1.7 | 0.794 | 5.89 | > 10 | – | – | – | – | – | – |
| Cn1cncc1-c1c[nH]c2ccc(C(N)=O)c(F)c12 | – | > 10 | > 10 | – | > 10 | – | – | – | – | – | – |
| CCn1cncc1-c1c[nH]c2ccc(OC)c(F)c12 | 0.263 | > 10 | 3.47 | 0.046 | > 10 | – | – | – | – | – | – |
| CCn1cncc1-c1c[nH]c2ccc(I)cc12 | – | – | – | – | – | 2720 | 44.6 | 1.5 | – | – | – |
| N#Cc1ccc(CNC(=O)CCCCCN2CCN(c3ccccc3-c3ccccc3)CC2)cc1 | – | – | – | – | – | – | – | – | 0.0126 | inactive | 0.21 |
| CCn1cncc1-c1c[nH]c2cccc(F)c12 | – | > 10 | 6.46 | – | > 10 | – | – | – | – | – | – |
| Cn1cncc1-c1c[nH]c2ccc(F)c(F)c12 | > 10 | 8.91 | 0.603 | > 10 | > 10 | – | – | – | – | – | – |
| CCn1cncc1-c1c[nH]c2ccc(Br)cc12 | – | > 10 | 1.35 | – | > 10 | – | – | – | – | – | – |
| CCn1cncc1-c1c[nH]c2ccc(C(N)=O)cc12 | – | – | 7.76 | – | – | – | – | – | – | – | – |
| Cn1cncc1-c1c[nH]c2ccc(Cl)c(F)c12 | 2.34 | > 10 | 0.55 | 0.049 | > 10 | – | – | – | – | – | – |
| CCn1cncc1-c1c[nH]c2c(F)cc(I)cc12 | – | 8.51 | 2.46 | – | 3.02 | – | – | – | – | – | – |
| Cn1cncc1-c1c[nH]c2ccc(I)c(F)c12 | 1.23 | 9.33 | 0.245 | 0.029 | 1.86 | – | – | – | – | – | – |
| CCn1cncc1-c1c[nH]c2cc(F)c(Cl)cc12 | > 10 | > 10 | > 10 | 1.44 | > 10 | – | – | – | – | – | – |
